Assay results reported in patent US12728122B2, “Treatment of urothelial and kidney cancers by use of endothelin B receptor antagonists” (ENB Therapeutics, Inc., priority 2019, dated 2026).
Entries after “also recorded” stand apart in the source; their conditions may differ.

Tests used:
[1] = target: T1, Recombinant human CXCR4 (Homo sapiens, UniProt P61073); assay: CXCR4 (h) cellular antagonist effect, impedance by dielectric spectroscopy; format: cell-based; conditions: CHO cells, stimulated with 1 nM SDF-1α, 28° C
T1 construct: expressed in transfected cells; host or cells: CHO cells
T1 sequence (P61073 whole entry): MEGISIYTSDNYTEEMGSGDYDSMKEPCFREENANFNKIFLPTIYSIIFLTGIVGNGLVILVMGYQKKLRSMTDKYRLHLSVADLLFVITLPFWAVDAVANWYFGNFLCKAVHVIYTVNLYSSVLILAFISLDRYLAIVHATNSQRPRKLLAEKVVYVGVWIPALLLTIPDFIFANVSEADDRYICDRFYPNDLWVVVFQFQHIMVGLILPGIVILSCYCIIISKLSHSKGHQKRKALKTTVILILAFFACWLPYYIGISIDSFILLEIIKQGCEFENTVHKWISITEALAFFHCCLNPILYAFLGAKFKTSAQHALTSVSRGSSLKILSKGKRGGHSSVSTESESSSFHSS
Protocol: FIGS. 4A and 4B illustrates human (“h”) CXCR inhibitory effects for, A) BQ-788 and B) BQ-788-B (Compound 1), a specifically deuterated ETBR antagonist. Cellular agonist effect was calculated as a % of control response to a known reference agonist for CXCR4 (h), and cellular antagonist effect was calculated as a % inhibition of control reference agonist response for CXCR4.
Determination of CXCR4 inhibitory effect. The inhibitory effect on CXCR4 (h) was determined for BQ-788 (FIG. 4A), and BQ-788-B (COMPOUND 1) (FIG. 4B). Cellular agonist effect was calculated as a % of control response to a known reference agonist for CXCR4 (h), and cellular antagonist effect was calculated as a % inhibition of control reference agonist response for CXCR4. Recombinant human CXCR4 was expressed in CHO cells, and stimulated with 1 nM SDF-1α and incubated at 28° C. Dielectric spectroscopy was used to measure impedance of the cells.

[2] = target: T2, human Endothelin receptor type A (ETA) (Homo sapiens, UniProt P25101); assay: ETA (h) cellular antagonist effect; format: cell-based
T2 sequence (P25101 21-427): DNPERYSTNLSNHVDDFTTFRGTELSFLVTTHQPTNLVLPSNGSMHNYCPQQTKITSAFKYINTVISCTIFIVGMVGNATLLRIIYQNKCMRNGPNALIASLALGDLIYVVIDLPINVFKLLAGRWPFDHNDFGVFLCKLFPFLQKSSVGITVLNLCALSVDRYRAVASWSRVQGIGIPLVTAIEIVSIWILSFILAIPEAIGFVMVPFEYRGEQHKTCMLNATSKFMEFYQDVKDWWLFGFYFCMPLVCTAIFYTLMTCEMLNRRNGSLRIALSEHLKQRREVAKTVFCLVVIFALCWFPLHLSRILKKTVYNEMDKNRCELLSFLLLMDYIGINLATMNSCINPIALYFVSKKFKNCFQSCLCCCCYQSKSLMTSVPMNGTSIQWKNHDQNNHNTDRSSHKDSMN
Protocol: FIGS. 5A and 5B illustrate human (“h”) Endothelin receptor type A (“ETA”) inhibitory effect for A) BQ-788 and B) BQ-788-B (Compound 1), a specifically deuterated ETBR antagonist. Cellular agonist effect was calculated as a % of control response to a known reference agonist for ETA (h), and cellular antagonist effect was calculated as a % inhibition of control reference agonist response for ETA.
Determination of ETA (h) inhibitory effect for BQ-788 and BQ-788-B (COMPOUND 1). […] Cellular agonist effect was calculated as a % of control response to a known reference agonist for ETA (h), and cellular antagonist effect was calculated as a % inhibition of control reference agonist response for ETA.

[3] = test system: plasma ET-1; assay: Plasma ET-1 ELISA after IV infusion, indirect measure of ETBR engagement; format: in vivo; conditions: rats, 250 μg/kg IV infusion
Protocol: Plasma concentrations of BQ-788 versus BQ-788-B (COMPOUND 1). […] Briefly, rats (N=4 animals per timepoint) were administered either BQ-788 or the deuterated form, BQ-788-B (COMPOUND 1) at a dose of 250 μg/kg via IV infusion. Plasma samples were collected at various time points and ET-1 ELISA performed. BQ788 and BQ788-B are peptide drugs that are rapidly degraded in plasma and thus drug levels are difficult to detect directly. […] As such, plasma levels of ET-1 are commonly used as an indirect measure of BQ-788 biologic activity.

[4] = test system: V600E+ (BRAF mutated) SM1 tumor; assay: Syngeneic melanoma V600E+ (BRAF mutated) SM1 tumor model, tumor volume and IHC; format: in vivo, C57BL/6 mice
Protocol: The syngeneic melanoma model V600E+ (BRAF mutated) SM1 tumor model was used in C57BL/6 mice to assess efficacy of deuterated ETBR antagonists in combination with immunotherapeutics (“B+P”) as compared to a standard treatment, dabrafenib with anti-PD1 (“D+P”). […] In this study 6-8 week old female C57BL/6 mice were inoculated with SM1 tumor fragments (TME* components present). Dosing was initiated when tumors were 150 mm3. The general dosing schemes were as follows: dabrafenib (30 mg/kg daily by oral gavage), immunotherapeutic 10 mg/kg Q4D IP beginning 2 days after dabrafenib), deuterated ETBR antagonist (4 μg administered QOD IV beginning 2 days after dabrafenib). Tumors were measured three times per week, and the study was terminated after 21 days of dosing and IHC analysis of tumors was performed.
TLOs are functionally equivalent to lymph nodes, produce tumor-specific T- and B-cells, and induce long lasting anti-tumor immunity.
FIG. 11 provides table summaries of the results obtained with combination therapies (two- and three-part), TLO formation and efficacy for tumor eradication. The model system tested is as described for FIG. 8. The combinations included dabrafenib+anti-PD1 (“D+P”); dabrafenib+anti-PD1+BQ-788-B (COMPOUND 1) at 0.6 μg (“D+P+B (0.6 μg)”); dabrafenib+anti-PD1+BQ-788-B (COMPOUND 1) at 4.0 μg (“D+P+B (4.0 μg)”); dabrafenib+anti-PD1+BQ-788-B (COMPOUND 1) at 100 μg (“D+P+B (100 μg)”); and anti-PD1+BQ-788-B (COMPOUND 1) at (4.0 μg) (“P+B (4.0 μg)”). […] FIG. 12 presents the efficacy results as a function of tumor volume (mm3).
6 week old female C57BL/6 mice, n=5 per group, were implanted with V600E+ melanoma cancer tumor cells. Once tumors were established, mice were dosed with ETBR antagonists and immune checkpoint inhibitors combination therapy. 21 days post treatment, histological examination was performed, FIG. 20.

[5] = test system: bladder cancer tumor cells, MB49-PDIRA-220; assay: Syngeneic bladder cancer murine model, tumor volume; format: in vivo, C57BL/6 mice; conditions: for anti-bladder cancer treatment efficacy (tumor volume): vs control and single agents
Protocol: 6 week old female C57BL/6 mice, n=5 per group, were implanted with bladder cancer tumor cells, MB49-PDIRA-220 at the right flank. When tumors reached from about 50 mm^3-75 mm^3 in volume, mice were separated into 4 treatment groups: (1) dosed with 4 μg of BQ-788-B (Compound 1) intravenously on days 1, 3, 5, 8, 10, 12 and 15 and with 100 μg of an anti-PD-1 agent intraperitoneally on days 1, 4, 9 and 13; (2) dosed with 4 μg of BQ-788-B (Compound 1) intravenously on days 1, 3, 5, 8, 10, 12 and 15; (3) dosed with 100 μg of an anti-PD-1 agent intraperitoneally on days 1, 4, 9 and 13; or (4) untreated control. Tumor volume measurements were taken every two days post treatment.
6 week old female C57BL/6 mice, n=5 per group, were implanted with bladder cancer tumor cells, MB49-PD1RA-220 at the right flank. When tumors reached from about 100 mm^3 in volume, mice were separated into 4 treatment groups: (1) dosed with BQ-788-B (Compound 1) intravenously on days 1, 3, 5, and 8 with 100 μg of an immunotherapeutic agent, namely an anti-PD-1 antibody intraperitoneally on days 1, 4, 9 and 13 (2) dosed with 4 μg of BQ-788-B (Compound 1) intravenously on days 1, 3, 5, and 8 (3) dosed with 100 μg of an anti-PD-1 agent intraperitoneally on days 1, 4, 9 and 13 or (4) untreated control. Tumor volume measurements were taken 3 times per week. The study was terminated on day 8 due to morbidity of control groups.
6 week old female C57BL/6 mice, n=5 per group, were implanted with bladder cancer tumor cells, MB49-PDIRA-220 at the right flank. When tumors reached from about 25 mm^3-50 mm^3 volume, mice were separated into 4 treatment groups: (1) dosed with 4 μg of BQ-788-B (BQ788) intravenously on days 1, 3, 5, and 8 with 100 μg of an anti-PD-1 agent intraperitoneally on days 1, 4, and 9 (2) dosed with 4 μg of BQ-788-B (BQ788) intravenously on days 1, 3, 5, and 8 (3) dosed with 100 μg of an anti-PD-1 agent intraperitoneally on days 1, 4, and 9 or (4) untreated control. Tumor volume measurements were taken 3 times per week. The study was terminated on day 12 due to morbidity of control groups.

[6] = combination with anti-PD1, histology 21 days after treatment

[2H]CC1CCCC(C[2H])N1C(=O)NC(CC(C)(C)C)C(=O)NC(Cc1cn(C(=O)OC)c2ccccc12)C(=O)NC(CCCC)C(=O)O (stereo not drawn) [BQ-788-B]
IC50, CXCR4 (h) inhibitory effect [1]: not calculable | IC50, ETA (h) inhibitory effect [2]: not calculable | plasma ET-1 prolonged peak out to [3]: about 3 hours | plasma ET-1 response relative to BQ-788 [3]: enhanced duration and amplitude of response; also recorded: enhanced plasma ET-1 concentration | CD8+ TIL staining distribution ([4]; BQ-788-B 0.6 μg + immune checkpoint inhibitor + dabrafenib, 21 days): diffuse CD8+ TIL staining | CD8+ TIL staining distribution ([4]; BQ-788-B 4.0 μg + anti-PD1 + dabrafenib, 21 days): peripheral distribution of TILs | CD8+ TIL staining distribution ([4]; BQ-788-B 100 μg + anti-PD1 + dabrafenib, 21 days): peripheral distribution of TILs | interaction with anti-PD1 / anti-oncologic agents ([4]; combination therapy, tumor volume): synergistic results; also recorded: synergistic activity; also recorded: restores sensitivity to the anti-PD1 antibody | lymphocyte infiltration of tumor (CD8+, CD4+, Treg staining) [4, 6]: robust infiltration by CD8+ lymphocytes (TILs); also recorded: strong mobilization of lymphocytes to the tumor | tertiary lymphoid organ (TLO) formation [4, 6]: most frequently associated with intratumoral TLO formation and tumor reduction; also recorded: induced tertiary lymphoid organ (TLO) formation | tumor outcome (volume, IHC) ([4]; deuterated ETBR antagonist 4 μg QOD IV + anti-PD1 10 mg/kg Q4D IP, 21 days): tumor shrinkage below baseline; also recorded: tumors had been eradicated leaving only residual adipose tissue; also recorded: eradicated the tumors | interaction with anti-PD1 ([5]; Example 3): synergy | anti-bladder cancer treatment efficacy (tumor volume) ([5]; Example 3: 4 μg IV days 1,3,5,8,10,12,15 + 100 μg anti-PD-1 IP): greatest anti-bladder cancer treatment efficacy | interaction with anti-PD1 ([5]; Example 5): synergy | anti-bladder cancer treatment efficacy (tumor volume) ([5]; Example 5: IV days 1,3,5,8 + 100 μg anti-PD-1 IP, tumors about 100 mm^3 at start): greatest anti-bladder cancer treatment efficacy | interaction with anti-PD1 ([5]; Example 6): synergy | anti-bladder cancer treatment efficacy (tumor volume) ([5]; Example 6: 4 μg IV days 1,3,5,8 + 100 μg anti-PD-1 IP days 1,4,9): greatest anti-bladder cancer treatment efficacy

CCCC[C@@H](NC(=O)[C@@H](Cc1cn(C(=O)OC)c2ccccc12)NC(=O)[C@H](CC(C)(C)C)NC(=O)N1[C@H](C)CCC[C@@H]1C)C(=O)O [BQ-788, N-[([2R,6S]-2,6-dimethyl-1-piperidinyl)carbonyl]-4-methyl-L-leucyl-N-[(1R)-1-carboxylatopentyl]-1-[methoxycarbonyl]-D-tryptophanamide, reference compound]
IC50, ETA (h) inhibitory effect [2]: not calculable | plasma ET-1 transient peak at [3]: about 30 minutes

CC(C)(C)c1nc(-c2cccc(NS(=O)(=O)c3c(F)cccc3F)c2F)c(-c2ccnc(N)n2)s1 [dabrafenib, reference compound]
tumor outcome (volume) ([4]; dabrafenib 30 mg/kg daily oral gavage + anti-PD1 10 mg/kg Q4D IP, 21 days): failed to shrink tumors but demonstrated intermediate tumor growth inhibition | effect of adding dabrafenib to anti-PD1/BQ-788-B combination ([4]; triple combination, tumor volume): impairs efficacy
